Test results from patent publication US5321030A, “Creatine analogs having antiviral activity” (priority 1991, dated 1994).
≈ marks a conversion by molar mass, not a printed value. Where “and” joins values, the source holds several entries; their conditions need not be identical. Identical values can stand only once. Like-named read-outs stand apart in the source and are kept apart here.

Experiments:
[1] = tested on: HCMV, strain C8704 (DHPG resistant); assay: microbe, parasite or virus in culture; assay type: cell-based, Human Cytomegalovirus; parameters: TI50 (CD50 ÷ ED50): unit not given beside the values; details: for # Plaques: virus control 91.0 ± 8.4
[2] = tested on: Herpes Simplex Virus, Type 1, strain BW10168 (TK-); assay: microbe, parasite or virus in culture; assay type: cell-based; parameters: TI50 (CD50 ÷ ED50): unit not given beside the values; details: for Average CPE: virus controls 4.0; for EC50: Human alphaherpesvirus 1, Vero
[3] = tested on: Murine Cytomegalovirus (MCMV), strain Smith; assay: Plaque reduction, murine cytomegalovirus in C127I cells; assay type: cell-based; details: Murid betaherpesvirus 1; 10 mg/ml
[4] = tested on: Guinea Pig Cytomegalovirus, Strain 22122; assay: CPE reduction assay, guinea pig cytomegalovirus in GPE cells; assay type: cell-based; parameters: TI50 (CD50 ÷ ED50): unit not given here; details: for Average CPE: virus controls 4.0
in vivo = assay type: in vivo
HSV-1 = assay: Cytopathic effect (CPE) assay, HSV-1
[5] = newly hatched chicks, 1% in diet, with antibiotics; cited from earlier work
[6] = tested on: Influenza A/Port Chalmers/1/73 (H3 N2); assay: CPE-reduction assay, Influenza A in MDCK cells; assay type: cell-based; details: 62.5 μg/ml-4 mg/ml
DU 145 cells = assay: Drug cytotoxicity in CPE assay, DU 145 cells; details: 10 mg/ml, 0 PFUs
creatine kinase = creatine kinase (Oryctolagus cuniculus, UniProt P00563); details: cited from earlier work
Chain of creatine kinase (P00563 whole entry): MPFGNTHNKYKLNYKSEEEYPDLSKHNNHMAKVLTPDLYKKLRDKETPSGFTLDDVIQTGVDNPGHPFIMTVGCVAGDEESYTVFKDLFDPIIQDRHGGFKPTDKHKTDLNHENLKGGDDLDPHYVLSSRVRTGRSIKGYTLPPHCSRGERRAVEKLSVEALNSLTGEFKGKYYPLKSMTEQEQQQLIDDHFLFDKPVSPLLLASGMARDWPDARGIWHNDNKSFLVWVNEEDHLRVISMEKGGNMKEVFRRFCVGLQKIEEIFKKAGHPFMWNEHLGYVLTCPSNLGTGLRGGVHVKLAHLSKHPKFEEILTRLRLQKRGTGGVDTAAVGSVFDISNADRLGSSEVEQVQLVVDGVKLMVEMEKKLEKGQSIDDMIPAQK

HCMV, strain AD-169 = assay: Plaque reduction assay, HCMV strain AD-169; assay type: cell-based, Human Cytomegalovirus; parameters: TI50 (CD50 ÷ ED50): unit not given here; details: for EC50: read-out: ED50 (the source's name)
[7] = tested on: Vesicular stomatitis virus (VSV), Indiana strain; assay type: cell-based; details: 62.5 μg/ml-4 mg/ml; Vero cells and BHK-21 cells; scale 0-4; no drug controls 4.0
[8] = Phosphorylation of cyclocreatine in cultured cells
in vitro [9] = details: monkey, vero cells
in vitro [10] = details: monkey, vero cells; remark: listed apart in the source

NC1=NCCN1CC(=O)O [cyclocreatine, 1-carboxymethyl-2-iminoimidazolidine]
# Plaques ([1]; AM 285 156.25 μg/ml): 81 | # Plaques ([1]; AM 285 312.5 μg/ml): 65.5 | # Plaques ([1]; AM 285 625 μg/ml): 52.5 | # Plaques ([1]; AM 285 1250 μg/ml): 48.5 | # Plaques ([1]; AM 285 2500 μg/ml): 14.5 | # Plaques ([1]; AM 285 5000 μg/ml): 3.5 | # Plaques ([1]; AM 285 10000 μg/ml): 0 | inhibition at 156.25 µg/mL ([1]; Human betaherpesvirus 5, MRC5, AM 285 156.25 μg/ml, read-out: % Reduction): 0% | inhibition at 312.5 µg/mL ([1]; Human betaherpesvirus 5, MRC5, AM 285 312.5 μg/ml, read-out: % Reduction): 28% | inhibition at 625 µg/mL ([1]; Human betaherpesvirus 5, MRC5, AM 285 625 μg/ml, read-out: % Reduction): 42% | inhibition at 1250 µg/mL ([1]; Human betaherpesvirus 5, MRC5, AM 285 1250 μg/ml, read-out: % Reduction): 47% | inhibition at 2500 µg/mL ([1]; Human betaherpesvirus 5, MRC5, AM 285 2500 μg/ml, read-out: % Reduction): 84% | inhibition at 5000 µg/mL ([1]; Human betaherpesvirus 5, MRC5, AM 285 5000 μg/ml, read-out: % Reduction): 96% | inhibition at 10000 µg/mL ([1]; Human betaherpesvirus 5, MRC5, AM 285 10000 μg/ml, read-out: % Reduction): 100% | EC50 ([1]; Human betaherpesvirus 5, MRC5, MRC-5 cells, Table 6, read-out: ED50 (the source's name)): 900 µg/mL (≈ 6.29 mM) | TI50 (CD50 ÷ ED50) ([1]; MRC-5 cells, Table 6): > 11.1 | Average CPE ([2]; AM-285 62.5 μg/ml): 3.2 | Average CPE ([2]; AM-285 125 μg/ml): 3.5 | Average CPE ([2]; AM-285 260 μg/ml): 3.2 | Average CPE ([2]; AM-285 500 μg/ml): 1.7 | Average CPE ([2]; AM-285 1000 μg/ml): 1.8 | Average CPE ([2]; AM-285 2000 μg/ml): 2.0 | Average CPE ([2]; AM-285 4000 μg/ml): 0.7 | EC50 ([2]; read-out: ED50, Vero cells, Table 8): 384 µg/mL (≈ 2.69 mM) | EC50 ([2]; read-out: ED50, as stated in text): ~900 µg/mL and ~6.3 mM | TI50 (CD50 ÷ ED50) ([2]; Vero cells, Table 8): > 4.5 | inhibition at 10000 µg/mL [3]: 53% | Average CPE ([4]; AM-285 156.25 μg/ml): 4.0 | Average CPE ([4]; AM-285 312.5 μg/ml): 4.0 | Average CPE ([4]; AM-285 625 μg/ml): 3.5 | Average CPE ([4]; AM-285 1250 μg/ml): 3.3 | Average CPE ([4]; AM-285 2500 μg/ml): 2.5 | Average CPE ([4]; AM-285 5000 μg/ml): 1.7 | Average CPE ([4]; AM-285 10000 μg/ml): 0.0 | EC50 ([4]; Caviid betaherpesvirus 2, GPE cells, Table 3, read-out: ED50 (the source's name)): 3270 µg/mL (≈ 22.9 mM) | TI50 (CD50 ÷ ED50) ([4]; GPE cells, Table 3): > 3.0 | effect on CPE ([4]; between 0.625 and 5.0 mg/ml): An inhibitory effect | tolerance in the diet (in vivo; 1% in mouse chow): well-tolerated | tolerance in toxicity control (in vivo; cream topical, sham-infected mice): well-tolerated and caused no adverse effects to the vaginal area | survival (in vivo; mouse, in vivo, 1 %, read-out: Survivors/Total (%)): 100% | Weight Change (in vivo; uninfected, AM-285 1% dietary, combined animal weights day 0 to day 15): 7.8 g | EC50 (HSV-1; Human alphaherpesvirus 1, Vero, read-out: 50% effective dose (ED50)): 1270 µg/mL and ~9 mM | IC20 (HSV-1; Human alphaherpesvirus 1, Vero, read-out: concentration required for ~20% inhibition): 35 mM | EC65 (HSV-1; Human alphaherpesvirus 1, Vero, read-out: dose required to inhibit cytopathogenicity by 65%): 35 mM | effect on percent monolayer cell death, second set of experiments (HSV-1; Vero cells, 0-200 PFU, series of concentrations): consistent dose-dependent inhibition | dose response against cytopathogenicity (HSV-1; Vero cells, 0.31-5.0 mg/ml, FIG. 16): shows a dose response | effect on cytopathic effect (HSV-1; contact-inhibited A459 cells, FIG. 7A): inhibited the cytopathic effect | effect on cytopathic effect (HSV-1; contact-inhibited BalbC/3T3 cells, FIG. 3A): inhibited the cytopathic effect | effect on cytopathic effect (HSV-1; serum-starved DU145 cells, FIG. 5A): inhibited the cytopathic effect | therapeutic index (HSV-1; serum-starved Vero cells): > 7.6 | effect on cytopathic effect (HSV-1; serum-starved Vero cells, 0.71-4.0 mg/ml, FIG. 1A): inhibited the cytopathic effect | tolerance of dietary cyclocreatine [5]: without significant mortality | antiviral activity [6]: did not display significant antiviral activity | cytotoxicity (DU 145 cells): some cytotoxicity | Vmax/Km ratio relative to creatine (creatine kinase; forward reaction in vitro): approximately one-fifth | initial rate of phosphorylation by creatine kinase, % of that of creatine (creatine kinase; in vitro, forward reaction): 31% | Vmax, % of that of creatine (creatine kinase; measured at 1° C.): 90% | Ki (creatine kinase; reverse reaction at 1° C., read-out: Ki, competitive inhibitor of P-creatine): 44 mM | TI50 (CD50 ÷ ED50) (HCMV, strain AD-169; Hs-68 cells, Table 5): greater than 6.2 | TI50 (CD50 ÷ ED50) (HCMV, strain AD-169; Hs-68 cells, Table 5, listed as AM-285): > 6.2 | # Plaques (HCMV, strain AD-169; Hs-68 cells, AM-285 62.5 μg/ml, virus control 74.2 ± 8.6): 71 | # Plaques (HCMV, strain AD-169; Hs-68 cells, AM-285 125 μg/ml, virus control 74.2 ± 8.6): 65 | # Plaques (HCMV, strain AD-169; Hs-68 cells, AM-285 260 μg/ml, virus control 74.2 ± 8.6): 87 | # Plaques (HCMV, strain AD-169; Hs-68 cells, AM-285 500 μg/ml, virus control 74.2 ± 8.6): 41 | # Plaques (HCMV, strain AD-169; Hs-68 cells, AM-285 1000 μg/ml, virus control 74.2 ± 8.6): 19.5 | # Plaques (HCMV, strain AD-169; Hs-68 cells, AM-285 2000 μg/ml, virus control 74.2 ± 8.6): 1.5 | # Plaques (HCMV, strain AD-169; Hs-68 cells, AM-285 4000 μg/ml, virus control 74.2 ± 8.6): 0 | inhibition at 260 µg/mL (HCMV, strain AD-169; Human betaherpesvirus 5, AD169, Hs68, read-out: % Reduction): 0% | EC50 (HCMV, strain AD-169; Human betaherpesvirus 5, AD169, Hs68, Hs-68 cells, Table 5): 647 µg/mL (≈ 4.52 mM) | inhibition at 62.5 µg/mL (HCMV, strain AD-169; Human betaherpesvirus 5, AD169, Hs68, Hs-68 cells, AM-285 62.5 μg/ml): 0% | inhibition at 125 µg/mL (HCMV, strain AD-169; Human betaherpesvirus 5, AD169, Hs68, Hs-68 cells, AM-285 125 μg/ml): 0% | inhibition at 500 µg/mL (HCMV, strain AD-169; Human betaherpesvirus 5, AD169, Hs68, Hs-68 cells, AM-285 500 μg/ml): 45% | inhibition at 1000 µg/mL (HCMV, strain AD-169; Human betaherpesvirus 5, AD169, Hs68, Hs-68 cells, AM-285 1000 μg/ml): 74% | inhibition at 2000 µg/mL (HCMV, strain AD-169; Human betaherpesvirus 5, AD169, Hs68, Hs-68 cells, AM-285 2000 μg/ml): 98% | inhibition at 4000 µg/mL (HCMV, strain AD-169; Human betaherpesvirus 5, AD169, Hs68, Hs-68 cells, AM-285 4000 μg/ml): 100% | EC50 (HCMV, strain AD-169; Human betaherpesvirus 5, AD169, MRC5, MRC-5 cells, Table 4): 610 µg/mL (≈ 4.26 mM) | inhibition at 62.5 µg/mL (HCMV, strain AD-169; Human betaherpesvirus 5, AD169, MRC5, MRC-5 cells, AM 285 62.5 μg/ml): 0% | inhibition at 125 µg/mL (HCMV, strain AD-169; Human betaherpesvirus 5, AD169, MRC5, MRC-5 cells, AM 285 125 μg/ml): 0% | inhibition at 250 µg/mL (HCMV, strain AD-169; Human betaherpesvirus 5, AD169, MRC5, MRC-5 cells, AM 285 250 μg/ml): 0% | inhibition at 500 µg/mL (HCMV, strain AD-169; Human betaherpesvirus 5, AD169, MRC5, MRC-5 cells, AM 285 500 μg/ml): 54% | inhibition at 1000 µg/mL (HCMV, strain AD-169; Human betaherpesvirus 5, AD169, MRC5, MRC-5 cells, AM 285 1000 μg/ml): 75% | inhibition at 2000 µg/mL (HCMV, strain AD-169; Human betaherpesvirus 5, AD169, MRC5, MRC-5 cells, AM 285 2000 μg/ml): 100% | inhibition at 4000 µg/mL (HCMV, strain AD-169; Human betaherpesvirus 5, AD169, MRC5, MRC-5 cells, AM 285 4000 μg/ml): 100% | TI50 (CD50 ÷ ED50) (HCMV, strain AD-169; MRC-5 cells, Table 4): greater than 6.5 | TI50 (CD50 ÷ ED50) (HCMV, strain AD-169; MRC-5 cells, Table 4, listed as AM 285): > 6.5 | # Plaques (HCMV, strain AD-169; MRC-5 cells, AM 285 62.5 μg/ml, virus control 26.4 ± 5.2): 25 | # Plaques (HCMV, strain AD-169; MRC-5 cells, AM 285 125 μg/ml, virus control 26.4 ± 5.2): 26 | # Plaques (HCMV, strain AD-169; MRC-5 cells, AM 285 250 μg/ml, virus control 26.4 ± 5.2): 23 | # Plaques (HCMV, strain AD-169; MRC-5 cells, AM 285 500 μg/ml, virus control 26.4 ± 5.2): 12 | # Plaques (HCMV, strain AD-169; MRC-5 cells, AM 285 1000 μg/ml, virus control 26.4 ± 5.2): 6 | # Plaques (HCMV, strain AD-169; MRC-5 cells, AM 285 2000 μg/ml, virus control 26.4 ± 5.2): 0 | # Plaques (HCMV, strain AD-169; MRC-5 cells, AM 285 4000 μg/ml, virus control 26.4 ± 5.2): 0 | CPE grade [7]: 4.0 | metabolised ([8]; a2058 cells): 13% | metabolised ([8]; du 145 cells): 76% | metabolised ([8]; me180 cells): 85% | metabolised ([8]; vero cells): 68% | CC50 (in vitro [9]): > 4000 µg/mL | CC50 (in vitro [10]): > 4000 µg/mL and > 28 mM
